# US20110152333A1, “3-CYANOPYRROLIDINYL-PHENYL-OXAZOLIDINONES AS ANTIBACTERIAL AGENTS” (FERRER INTERNACIONAL, S.A., priority 2008, published 2011)
# Where two headings read alike, the source gives them in different places.
# Key:
# H. influenzae ATCC49247 = test: MIC, micro dilution (NCCLS M7-A5); format: cell-based, Haemophylus influenzae; conditions: Haemophilus influenzae, Table 1
# E. coli KAM-3 = test: MIC, micro dilution (NCCLS M7-A5); format: cell-based; conditions: Escherichia coli, KAM3, Table 2
# S. aureus ATCC25923 MS = test: MIC, micro dilution (NCCLS M7-A5); format: cell-based, Staphylococcus aureus
# [1] = tested on: Moraxella catarrhalis HCI-78; test: MIC, micro dilution (NCCLS M7-A5); format: cell-based; conditions: HCI78, Table 1, 5% CO2
# E. faecium ATCC51559 MDR = test: MIC, micro dilution (NCCLS M7-A5); format: cell-based, Enterococcus faecium
# S. aureus LNZ-R 432 = test: MIC, micro dilution (NCCLS M7-A5); format: cell-based; conditions: Staphylococcus aureus, LNZR432, Table 1
# S. aureus 1199 = test: MIC, micro dilution (NCCLS M7-A5); format: cell-based; conditions: Staphylococcus aureus, Table 2
# E. faecium ECFM-1-128 = test: MIC, micro dilution (NCCLS M7-A5); format: cell-based; conditions: Enterococcus faecium, ECFM1128, Table 2
# MRSE = test: MIC, micro dilution (NCCLS M7-A5); format: cell-based; conditions: Staphylococcus epidermidis, Table 2
# [2] = tested on: S. epidermidis ATCC12228 MR; test: MIC, micro dilution (NCCLS M7-A5); format: cell-based; conditions: Staphylococcus epidermidis, Table 2
# S. aureus 199B = test: MIC, micro dilution (NCCLS M7-A5); format: cell-based; conditions: Staphylococcus aureus, Table 2
# Enteroc. = test: Geometric mean MIC, enterococci; format: cell-based; conditions: Table 2, read-out: Geom. Mean MIC Enteroc.
# E. faecalis ECFL-1-128 = test: MIC, micro dilution (NCCLS M7-A5); format: cell-based; conditions: Enterococcus faecalis, ECFL1128, Table 2
# [3] = tested on: S. pneumoniae ATCC6303 in vivo; test: MIC, micro dilution (NCCLS M7-A5); format: cell-based; conditions: Streptococcus pneumoniae, Table 2
# E. faecium LNZ-R LR-4 = test: MIC, micro dilution (NCCLS M7-A5); format: cell-based, Enterococcus faecium
# E. faecalis ECFL-1 = test: MIC, micro dilution (NCCLS M7-A5); format: cell-based; conditions: Enterococcus faecalis, ECFL1, Table 2
# [4] = tested on: E. faecalis ATCC51575 MDR; test: MIC, micro dilution (NCCLS M7-A5); format: cell-based; conditions: Enterococcus faecalis, Table 2
# [5] = tested on: S. aureus clinical strain cfr. methylase; test: MIC, micro dilution (NCCLS M7-A5); format: cell-based; conditions: Staphylococcus aureus, Table 2
# [6] = tested on: B. fragilis sp. fragilis ATCC25285; test: MIC, micro dilution (NCCLS M7-A5); format: cell-based; conditions: Bacteroides fragilis, Table 1, Brucella Blood medium for anaerobic strains
# E. faecium ECFM-2 = test: MIC, micro dilution (NCCLS M7-A5); format: cell-based; conditions: Enterococcus faecium, ECFM2, Table 2
# E. coli TG1 = test: MIC, micro dilution (NCCLS M7-A5); format: cell-based; conditions: Escherichia coli, Table 2
# E. faecalis ATCC29212 = test: MIC, micro dilution (NCCLS M7-A5); format: cell-based; conditions: Enterococcus faecalis, Table 2
# E. faecium ECFM-1 = test: MIC, micro dilution (NCCLS M7-A5); format: cell-based; conditions: Enterococcus faecium, ECFM1, Table 2
# E. faecalis ECFL-2 = test: MIC, micro dilution (NCCLS M7-A5); format: cell-based; conditions: Enterococcus faecalis, ECFL2, Table 2
# S. Haemolyticus = test: MIC, micro dilution (NCCLS M7-A5); format: cell-based; conditions: Staphylococcus haemolyticus, Table 2
# [7] = tested on: S. aureus ATCC33591 in vivo; test: MIC, micro dilution (NCCLS M7-A5); format: cell-based; conditions: Staphylococcus aureus, Table 2
# S. aureus ATCC43300 MR = test: MIC, micro dilution (NCCLS M7-A5); format: cell-based; conditions: Staphylococcus aureus, Table 2
# [8] = tested on: S. aureus 1199B NorA overE; test: MIC, micro dilution (NCCLS M7-A5); format: cell-based; conditions: Staphylococcus aureus
# [9] = tested on: S. pneumoniae ATCC49619 PR; test: MIC, micro dilution (NCCLS M7-A5); format: cell-based, Streptococcus pneumoniae
# E. faecium ATCC10541 = test: MIC, micro dilution (NCCLS M7-A5); format: cell-based; conditions: Enterococcus faecium, Table 2
# MRSE-128 = test: MIC, micro dilution (NCCLS M7-A5); format: cell-based; conditions: Table 2
# Staphyl. = test: Geometric mean MIC, staphylococci; format: cell-based; conditions: Table 2, read-out: Geom. Mean MIC Staphyl.
# Gram+ = test: Geometric mean MIC, Gram+; format: cell-based; conditions: Table 2, read-out: Geom. Mean MIC Gram+
# [10] = tested on: Moraxella, Pasteurella and Bacteroides spp.; conditions: background; cited from earlier work
# [11] = Staphylococcus aureus, Table 1, read-out: MIC
# [12] = Enterococcus faecium, Table 1, read-out: MIC
# [13] = Streptococcus pneumoniae, Table 1, 5% CO2, read-out: MIC
# [14] = Enterococcus faecium, Table 2, read-out: MIC
SMILES,MIC (H. influenzae ATCC49247),MIC (E. coli KAM-3),MIC (S. aureus ATCC25923 MS; [11]),MIC [1],MIC (E. faecium ATCC51559 MDR; [12]),MIC (S. aureus LNZ-R 432),MIC (S. aureus 1199),MIC (E. faecium ECFM-1-128),MIC (MRSE),MIC [2],MIC (S. aureus 199B),MIC (Enteroc.),MIC (E. faecalis ECFL-1-128),MIC [3],MIC (E. faecium LNZ-R LR-4; [12]),MIC (E. faecalis ECFL-1),MIC [4],MIC [5],MIC [6],MIC (E. faecium ECFM-2),also measured
"CC(=O)NC[C@H]1CN(c2ccc(N3CCC(C#N)C3)c(F)c2)C(=O)O1 (stereo partly drawn) [Ex. 1, N-{(5S)-3-[3-fluoro-4-(3-cyanopyrrolidin-1-yl)phenyl]-2-oxo-5-oxazolidinylmethyl}acetamide]",4 µg/mL,1 µg/mL,0.5 µg/mL,2 µg/mL,0.25 µg/mL,4 µg/mL,1 µg/mL,32 µg/mL,0.25 µg/mL,0.25 µg/mL,1 µg/mL,0.3 µg/mL,32 µg/mL,0.25 µg/mL,8 µg/mL,0.125 µg/mL,0.25 µg/mL,4 µg/mL,0.5 µg/mL,0.5 µg/mL,"MIC (S. aureus ATCC25923 MS; Table 2): 0.5 µg/mL; MIC (E. faecium ATCC51559 MDR; Table 2): 0.25 µg/mL; MIC (E. faecium LNZ-R LR-4; Table 2): 8 µg/mL; MIC (E. coli TG1): 32 µg/mL; MIC (E. faecalis ATCC29212): 0.25 µg/mL; MIC (E. faecium ECFM-1): 0.5 µg/mL; MIC (E. faecalis ECFL-2): 1 µg/mL; MIC (S. Haemolyticus): 8 µg/mL; MIC [7]: 0.25 µg/mL; MIC (S. aureus ATCC43300 MR): 0.5 µg/mL; MIC [8]: 0.5 µg/mL; MIC [9, 13]: 0.25 µg/mL; MIC ([9]; Table 2): 0.25 µg/mL; MIC (E. faecium ATCC10541): 0.25 µg/mL; MIC (MRSE-128): 8 µg/mL; MIC (Staphyl.): 0.4 µg/mL"
"CC(=O)NC[C@H]1CN(c2ccc(N3CCC(O)C3)c(F)c2)C(=O)O1 (stereo partly drawn) [Ex. 5, (S)—N-[[3-[4-(3-hydroxypyrrolidinyl)-3-fluorophenyl]-2-oxo-5-oxazolidinyl]methyl]acetamide, reference compound]",,4 µg/mL,,,,,2 µg/mL,64 µg/mL,1 µg/mL,1 µg/mL,2 µg/mL,1.7 µg/mL,64 µg/mL,0.5 µg/mL,,2 µg/mL,2 µg/mL,16 µg/mL,,2 µg/mL,"MIC (S. aureus ATCC25923 MS; Staphylococcus aureus, Table 2, read-out: MIC): 2 µg/mL; MIC (E. faecium ATCC51559 MDR; [14]): 1 µg/mL; MIC (E. faecium LNZ-R LR-4; [14]): 32 µg/mL; MIC (E. coli TG1): 64 µg/mL; MIC (E. faecalis ATCC29212): 2 µg/mL; MIC (E. faecium ECFM-1): 2 µg/mL; MIC (E. faecalis ECFL-2): 4 µg/mL; MIC (S. Haemolyticus): 32 µg/mL; MIC [7]: 2 µg/mL; MIC (S. aureus ATCC43300 MR): 1 µg/mL; MIC [8]: 1 µg/mL; MIC ([9]; Streptococcus pneumoniae, Table 2, read-out: MIC): 1 µg/mL; MIC (E. faecium ATCC10541): 2 µg/mL; MIC (MRSE-128): 32 µg/mL; MIC (Staphyl.): 1.2 µg/mL; MIC (Gram+): 1.4 µg/mL"
"CC(=O)NC[C@H]1CN(c2ccc(N3CCOCC3)c(F)c2)C(=O)O1 [Linezolid, N-[[(5S)-3-[3-fluoro-4-(4-morpholinyl)phenyl]-2-oxo-5-oxazolidinyl]methyl]acetamide, reference compound]",16 µg/mL,,1 µg/mL,2 µg/mL,0.5 µg/mL,16 to 32 µg/mL,,,,,,,,,64 µg/mL,,,,2 µg/mL,,"MICs [10]: 2 to 8 µg/mL; MIC [9, 13]: 1 µg/mL"
